According to patent EP0002259B1, “Hydantoin derivatives and salts thereof, their synthesis and pharmaceutical formulations” (THE WELLCOME FOUNDATION LIMITED, priority 1977, dated 1979):

Experiments:
[1] = test system: platelets in fresh human platelet rich plasma (PRP); assay: Inhibition of platelet aggregation (ADP-stimulated, Born aggregometer), activity compared to PGE1; type: cell-based; settings: 37°C for 1 minute, ADP 5 µm
Experimental: Aggregation of platelets in 1 ml of fresh human platelet rich plasma (PRP) was monitored in a Born aggregometer.
The compound to be tested was added to the PRP at the desired concentration, and the resulting mixture incubated at 37°C for 1 minute after which platelet aggregation was stimulated by the addition of adenosine diphosphate (ADP) to a concentration of 5 µm.
The antiaggregatory effect of the compound was assessed by measuring the percentage inhibition of platelet aggregation in the presence of the compound as compared with when it was absent. The percentage inhibitions at various concentrations of hydantoin and prostaglandin E, (PGE,) were established and compared to show activity compared to PGE,.

[2] = test system: Male normotensive rats Wistar (Charles River) strain; assay: Cardiovascular effects in anaesthetised rats (hypotensive effect compared with prostacyclin); type: in vivo; settings: intravenous injection in physiological saline
Experimental: Male normotensive rats Wistar (Charles River) strain, ([…]) were anesthetised (chloroform) prior to cannulation to left femoral vein and anaestesia maintained by intravenous chloralose (60 mg/kg). Pulsatile blood pressure was recorded from the left femoral artery with an electronic transducer (Bell and Howell Type 4-327 L221) and integrated heart rate was measured with a cardiotachometer triggered from the arterial pressure waves.
The test compound (less polar diastereomer of the compounds of Example 2) was administered as a solution in physiological saline by intravenous injection via the femoral cannula. The responses recorded were allowed to return to the preinjection levels between successive administrations.

[3] = Solubility in volatile solvent (tablet formulation); type: physicochemical; settings: methanol, ethanol
Experimental: The compound was dissolved in a volatile solvent. […] The mixture was then pressed to tablets, each 226 mg in weight.

## CCCCCC(O)CCN1C(=S)NC(=O)C1CCCCCCC(=O)O (centres unmarked) [Example 1 more, 5-(6-carboxyhexyl)-1-(3-hydroxyoctyl)-2-thiohydantoin]
[1]; activity relative to PGE1
  Inhibition of Platelet Aggregation (X PGE1): <0,01 X PGE1

## CC(C)(C)CC(O)CCN1C(=S)NC(=O)C1CCCCCCC(=O)O (centres unmarked) [Example 2 less, 5-(6-carboxyhexyl)-1-(5,5-dimethyl-3-hydroxyhexyl)-2-thiohydantoin]
[2]
  hypotensive effect, per cent of the hypotensive effect of prostacyclin: less than one
[1]; activity relative to PGE1, listed as 2 less
  Inhibition of Platelet Aggregation (X PGE1): 0,04 X PGE1

## O=C(O)CCCCCCC1C(=O)NC(=S)N1CCC(O)C1CCCCC1 (single isomer, unassigned) [Example 3 less, 5-(6-carboxyhexyl)-l-(3-cyclohexyl-3-hydroxypropyl)-2-thiohydantoin]
[3]
  solubility: soluble in methanol and in ethanol

## O=C(O)CCCCCCC1C(=O)NC(=S)N1CCC(O)C1CCCC1 (centres unmarked) [Example 5 less, 5-(6-carboxyhexyl)-1-(3-cyclopentyl-3-hydroxypropyl)-2-thiohydantoin]
[1]; activity relative to PGE1
  Inhibition of Platelet Aggregation (X PGE1): 0,03 X PGE1

## O=C(O)CCC/C=C\CC1C(=O)NC(=S)N1CCC(O)C1CCCCC1 (centres unmarked) [Example 6 more, 5-(6-carboxyhex-2Zenyl)-1-(3-cyclohexyl-3-hydroxypropyl)-2-thiohydantoin]
[1]; activity relative to PGE1, listed as 6 more
  Inhibition of Platelet Aggregation (X PGE1): 0,02 X PGE1

## CC(C)(C)CC(O)CCN1C(=S)NC(=O)C1CCCCCCC(=O)O (centres unmarked) [Example 2 more, 5-(6-carboxyhexyl)-1-(5,5-dimethyl-3-hydroxyhexyl)-2-thiohydantoin]
[1]; activity relative to PGE1, listed as 2 more
  Inhibition of Platelet Aggregation (X PGE1): 0,01 X PGE1

## O=C(O)CCC/C=C\CC1C(=O)NC(=S)N1CCC(O)C1CCCCC1 (centres unmarked) [Example 6 less, 5-(6-carboxyhex-2Zenyl)-1-(3-cyclohexyl-3-hydroxypropyl)-2-thiohydantoin]
[1]; activity relative to PGE1, listed as 6 less
  Inhibition of Platelet Aggregation (X PGE1): 0,04 X PGE1
